Measurements taken from patent publication US9757357B2, “Photodynamic therapy or diagnostic agent, using infrared-spectrum light” (Tokyo Institute of Technology, priority 2011, dated 2017).

Tested on: MKN45 cells
Test: ALA-PDT using LNP under 980-nm NIR irradiation (MTT viability)
Assay type: cell-based, Human
Description: MKN45 cells were irradiated with NIR in the presence of ALA and LNP to confirm whether cell death occurred.
A medium in a 10-cm dish containing MKN45 cells cultured in a liquid medium (RPMI-1640, FBS(+), and PSN(+)) was aspirated, and the cells were washed with 3 ml of a PBS solution. 1 ml of trypsin was added thereto, and the mixture was incubated (37° C. and 5% CO2) for 5 minutes. The enzymatic reaction of trypsin was terminated by the addition of 5 ml of a fresh medium. A total of 6 ml of the reaction mixture was centrifuged at 1100 rpm for 5 minutes. In this procedure, 10 μl of the sample was mixed with a dye trypan blue, which dyes dead cells. The number of cells was counted using a hemacytometer. After the centrifugation, the supernatant was aspirated, and 2 ml of a fresh medium was added to the cells. The resulting cells were inoculated at a concentration of 100 μl/well (2×10^4 cells/well) to a 96-well plate for ALA concentrations 1000, 100, 10, and 0 μM and a blank. LNP(+) and LNP(−) series were prepared per sample, and these samples were divided into two different plates for NIR(+) and NIR(−). After overnight culture, the medium in each well was discarded. 100 μl of a fresh medium (containing 2.5 mg/ml LNP for the LNP(+) series) and 0.2 M ALA adjusted to the concentrations mentioned above were added to each well of the plates. After incubation for 4 hours, each plate was irradiated from 50 mm above with 980-nm NIR (400 mA) for 3 min/well. After overnight culture, the medium in each well was discarded, and the cells were washed with 100 μl of a PBS solution. 100 μl of a fresh medium and 10 μl of an MTT methanol solution diluted 10-fold with PBS were added to each well. After incubation for 4 hours, 10% SDS was added thereto at a concentration of 100 μl/well, and the mixture was incubated overnight. The absorbance was measured at 570 nm to 660 nm.
ALA-PDT was performed using commercially available LNP in the same way as in Example 4 except that the concentration of MKN45 cells was changed to 2×10^4 cells/well; the ALA concentrations were changed to 2000, 1000, 100, 10, and 0 μM; the culture time after addition of ALA was changed from 4 hours to 24 hours; and the NIR irradiation time was changed to 90 min/well.
ALA-PDT was performed using synthetic LNP in the same way as in Example 5 except that: the concentration of the synthetic LNP prepared in Example 6 was set to 2 mg/mL; and the ALA concentrations were changed to 2000, 1500, 1000, 100, and 0 μM.

**Q.** How did the cell viability (Example 4, FIG. 4, LNP(−),NIR(+), ALA 0-1000 μM, 4 h, 980-nm NIR 3 min/well) turn out when `NCC(=O)CCC(=O)O` [ALA, 5-aminolevulinic acid] was run?
**A.** Its cell viability is “slight reduction in viability was confirmed”.

**Q.** And the cell viability (Example 4, FIG. 4, no NIR irradiation, ALA 0-1000 μM, 4 h, LNP(+) series 2.5 mg/ml and LNP(−) series)?
**A.** The cell viability was “no change was observed in cell viability”.

**Q.** What about the cell viability (Example 5, FIG. 5, LNP(−),NIR(+), ALA 0-2000 μM, 24 h, NIR 90 min/well) of the same molecule?
**A.** Its cell viability is “no change was confirmed in cell viability”.

**Q.** What about the cell viability (Example 5, FIG. 5, no NIR irradiation, ALA 0-2000 μM, 24 h) of the same molecule?
**A.** The cell viability was “no change was confirmed in cell viability”.
